Data reported in patent publication US8980932B2, “Cancer targeting using carbonic anhydrase isoform IX inhibitors” (Stichting Maastricht Radiation Oncology “Maastro-Clinic”, priority 2010, dated 2015).
Where two headings read alike, the source gives them in different places.

Tests used:
hCA IX = hCA IX (Homo sapiens (Human), UniProt Q16790); assay: CA-catalyzed CO2 hydration stopped-flow inhibition assay, hCA IX
Description: The uncatalyzed rates were determined in the same manner and subtracted from the total observed rates. Stock solutions of inhibitor (1 mM) were prepared in distilled-deionized water with 10-20% (v/v) DMSO (which is not inhibitory at these concentrations) and dilutions up to 0.1 nM were done thereafter with distilled-deionized water. Inhibitor and enzyme solutions were preincubated together for 15 min at room temperature prior to assay, in order to allow for the formation of CA IX-inhibitor complex. The inhibition constants were obtained by non-linear last-squares methods using PRISM 3 and represent the mean from at least three different determinations.

[1] = test system: cervical (HeLa) carcinoma cell line; assay: Extracellular acidification (delta pH of medium) in HeLa cells; assay type: cell-based, human
Description: (§1) The experiment was set up as previously described (Dubois et al, 2007). A colorectal (HT-29) (FIG. 5a) and a cervical (HeLa) (FIG. 5b) carcinoma cell line were tested in normoxic (ambient oxygen concentration) and hypoxic (0.2% oxygen) conditions. HT-29 cells are known to be constitutive hypoxia inducible CA IX (CA IX expression under normoxia and increased CA IX expression upon hypoxia) expressing cells. Therefore, compounds were added after 1 h of hypoxic exposure (to ensure active CA IX) and incubation was done for another 23 h (total of 24 h hypoxia). HeLa cells are hypoxia inducible (at lower density) CA IX expressing cells. Therefore, HeLa were first incubated for 24 h hypoxia to ensure CA IX expression in the first place (time point assessed in time series experiments). Afterwards, compounds were added and cells were incubated for another 24 h.
(§2) Experiments were performed in triplicate for each condition. The described conditions were done both for HT-29 and HeLa under normoxic and hypoxic conditions.
(§3) Following conditions were assessed: • Blank 1 mM or 0.1 mM (no addition of compound, only DMSO/PBS) • DH307 1 mM or 0.1 mM • DH310 1 mM or 0.1 mM • DH338 1 mM or 0.1 mM • DH348 1 mM or 0.1 mM • S=AEBS (4-(2-aminoethylbenzenesulfonamide); Sigma) 1 mM or 0.1 mM (known to reduce extracellular pH as described by (Svastova et al, 2004))
(§4) Cells were seeded in 6 cm dishes (HT-29: 10e6; HeLa: 4×10^5: to compensate for cell size) in 5 ml of DMEM supplemented with 10% FCS. The day after, medium was replaced by 3.6 ml of freshly prepared DMEM/FCS 10%, from which the pH was measured=pH at incubation), after which dishes were placed in the hypoxic chamber (normoxic dishes remained at ambient air in the incubator: 37° C., 95% humidity, 5% CO2). Compounds were added (1 h for HT-29 or 24 h for HeLa after start hypoxic exposure) to have a final concentration of 1 mM or 0.1 mM, by adding 400 μl to the dishes, starting from a 10 or 1 mM stock (DMSO final concentration 0.1%). Blanc controls received DMSO/PBS without compound. pH of the medium was measured after 24 h (HT-29) or 48 h (HeLa) inside the hypoxic chamber after calibration of the electrode to reduced oxygen concentrations. Delta pH (pH at end hypoxic exposure−pH of replacement medium before incubation) were calculated and shown in the graph of FIGS. 5a and 5b.

[2] = test system: colorectal (HT-29) carcinoma cell line; assay: Extracellular acidification (delta pH of medium) in HT-29 cells; assay type: cell-based; conditions: for reduction of extracellular acidification: HT-29, hypoxia (0.2% oxygen)
Description: as §1, §2, §3, §4

[3] = read-out: KI hCA IX, stopped-flow CO2 hydration, pH 7.5, 15 min preincubation

Row | melting point [°C] | Compound | Ki (hCA IX; [3]) [nM] | reduction of extracellular acidification ([2]; 1 mM) | further results
1 |  | Cc1ncc([N+](=O)[O-])n1CCNC(=S)NCCc1ccc(S(N)(=O)=O)cc1 [Compound 6d, N-(4-sulfamoylphenylethyl)-N-((2-aminoethyl)-2-methyl-5-nitroimidazolyl)thiourea] | 7.8 |  | 
2 |  | Cc1ncc([N+](=O)[O-])n1CCNC(=S)Nc1ccc(S(N)(=O)=O)cc1 [Compound 6a, N-(4-sulfamoylphenyl)-N-((2-aminoethyl)-2-methyl-5-nitroimidazolyl)thiourea] | 7.3 |  | 
3 |  | Cc1ncc([N+](=O)[O-])n1CCNC(=S)NCc1ccc(S(N)(=O)=O)cc1 [Compound 6c, N-(4-sulfamoylbenzyl)-N-((2-aminoethyl)-2-methyl-5-nitroimidazolyl)thiourea] | 8.3 |  | reduction of extracellular acidification ([1]; hypoxia (0.2% oxygen), 0.1 mM): strong reduction; reduction of extracellular acidification ([1]; hypoxia (0.2% oxygen), 1 mM): made the medium alkaline
4 | 195 to 197 | NS(=O)(=O)c1cccc(NC(=O)Cn2ccnc2[N+](=O)[O-])c1 [Compound 4b, 2-(2-nitro-imidazol-1-yl)-N-(3-sulfamoylphenyl)acetamide] |  |  | 
5 |  | NCCc1ccc(S(N)(=O)=O)cc1 [S, 4-(2-aminoethylbenzenesulfonamide), reference compound] |  | effectively reduced the extracellular acidification | reduction of extracellular acidification ([2]; 0.1 mM): less; effect on extracellular acidification upon normoxic exposure ([2]; HT-29, normoxia): No effect; reduction of extracellular acidification ([1]; hypoxia (0.2% oxygen), 0.1 mM): less; reduction of extracellular acidification ([1]; hypoxia (0.2% oxygen), 1 mM): effectively reduced the extracellular acidification; effect on extracellular acidification upon normoxic exposure ([1]; normoxia): No effect
6 | 139 to 141 | NS(=O)(=O)c1ccc(CCNC(=O)Cn2ccnc2[N+](=O)[O-])cc1 [Compound 4d, 2-(2-nitro-imidazol-1-yl)-N-[2-(4-sulfamoylphenyl)ethyl]acetamide] |  |  | Ki (hCA IX): 7.3 nM
7 | 122 | Cc1ncc([N+](=O)[O-])n1CCNS(N)(=O)=O [Compound 7, N-[2-(2-methyl-5-nitro-imidazol-1-yl)ethyl]sulfamide] |  | best results | reduction of extracellular acidification ([2]; 0.1 mM): additional reduction compared with the other compounds; reduction of extracellular acidification ([1]; hypoxia, concentration not specified): best results
8 |  | N-[2-(2-methyl-5-nitro-imidazol-1-yl)ethyl]sulfamate [Compound 9] |  | best results | 
9 | 163 to 165 | NS(=O)(=O)c1ccc(NC(=O)Cn2ccnc2[N+](=O)[O-])cc1 [Compound 4a, 2-(2-nitro-imidazol-1-yl)-N-(4-sulfamoylphenyl)acetamide] | 70 |  | 
